Results reported in article PMC7251097, “Aspartate/asparagine-β-hydroxylase: a high-throughput mass spectrometric assay for discovery of small molecule inhibitors” (Scientific Reports, 2020).
Counter-ions that a name gives are not always drawn. Like-named read-outs stand apart in the source and are kept apart here.

Target: T1, His6-AspH315–758 (human aspartate/asparagine-β-hydroxylase, AspH) (Homo sapiens, UniProt Q12797)
T1 construct: N-Terminally His6-tagged human AspH315–758 (His6-AspH315–758) was produced in E. coli BL21 (DE3) cells; made in house; host or cells: E. coli BL21 (DE3), pET-28a(+) vector
T1 sequence (Q12797 315-758): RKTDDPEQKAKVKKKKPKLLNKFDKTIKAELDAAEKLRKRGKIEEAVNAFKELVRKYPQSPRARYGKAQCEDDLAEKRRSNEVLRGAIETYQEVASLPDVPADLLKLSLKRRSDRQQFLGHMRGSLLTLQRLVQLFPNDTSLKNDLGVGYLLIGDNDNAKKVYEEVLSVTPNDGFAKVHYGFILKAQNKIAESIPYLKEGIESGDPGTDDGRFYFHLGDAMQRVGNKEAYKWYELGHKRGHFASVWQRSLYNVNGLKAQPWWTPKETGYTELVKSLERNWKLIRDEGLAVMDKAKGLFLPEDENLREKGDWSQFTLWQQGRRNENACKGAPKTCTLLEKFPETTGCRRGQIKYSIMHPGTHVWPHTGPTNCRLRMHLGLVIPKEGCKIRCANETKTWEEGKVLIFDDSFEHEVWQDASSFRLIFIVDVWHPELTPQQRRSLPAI
Experiment: SPE-MS AspH inhibition assay (LOPAC screen at fixed 20 μM and IC50 dose-response), hydroxylation of cyclic peptide hFX-CP101–119
Format: biochemical

[1] = LOPAC compound at fixed 20 uM, plate 1, normalised to DMSO and 2,4-PDCA controls
[2] = LOPAC compound at fixed 20 uM, substrate conversion, plate 1
[3] = LOPAC Plate 4, compound at 20 uM, substrate conversion

Row | Plate 1 (% inhibition) [1] | Plate 1 (% conversion) [2] | Structure (SMILES) | further results
1 | -6.36% | 38.01% | CC(=O)c1ccc(S(=O)(=O)NC(=O)NC2CCCCC2)cc1 [Acetohexamide] | 
2 | -15.64% | 41.13% | CC(=O)OC(C)C[N+](C)(C)C.[Cl-] (stereo not drawn) [Acetyl-beta-methylcholine chloride] | 
3 | -0.51% | 36.04% | CC(=O)Oc1ccccc1C(=O)O [Acetylsalicylic acid] | 
4 |  |  | CC(=O)SCC[N+](C)(C)C.[Cl-] [Acetylthiocholine chloride] | Plate 1 (% conversion): 37.52%; Plate 1 (% inhibition): -4.90%
5 |  |  | CCN1C[C@]2(COC)[C@H](O)C[C@H](OC)[C@@]34[C@@H]5C[C@@]6(O)[C@H](OC(=O)c7ccccc7)[C@@H]5[C@@](OC(C)=O)([C@@H]([C@H](OC)[C@H]23)[C@@H]14)[C@@H](O)[C@@H]6OC [Aconitine] | Plate 1 (% conversion): 40.69%; Plate 1 (% inhibition): -14.35%
6 | -5.32% | 37.66% | CCCCC[C@H](CC(=O)NO)C(=O)N[C@H](C(=O)N1CCC[C@H]1CO)C(C)C [Actinonin] | 
7 | -3.39% | 37.01% | Nc1nc2c(ncn2COCCO)c(=O)[nH]1 [Acyclovir] | 
8 | 4.27% | 34.44% | Nc1ncnc2c1ncn2[C@@H]1O[C@H](CO)[C@@H](O)[C@H]1O [Adenosine] | 
9 |  |  | COc1ccc2cccc(CCNC(C)=O)c2c1 [Agomelatine] | Plate 3 (% conversion) (LOPAC compound at 20uM, plate 3, conversion of substrate peptide): 37.59%
10 |  |  | CC(C)(C)NCC(O)c1ccc(O)c(CO)c1.CC(C)(C)NCC(O)c1ccc(O)c(CO)c1.O=S(=O)(O)O (centres unmarked) [Albuterol hemisulfate] | % conversion [3]: 30.81%
11 | -12.38% | 40.03% | COc1cc2nc(N(C)CCCNC(=O)C3CCCO3)nc(N)c2cc1OC (centres unmarked) [Alfuzosin hydrochloride] | 
12 | -13.62% | 40.45% | O=c1nc2[nH]c3ccccc3nc-2c(=O)[nH]1 [Alloxazine] | 
13 | -9.33% | 39.00% | C=CCc1ccccc1OCC(O)CNC(C)C (centres unmarked) [Alprenolol hydrochloride] | 
14 | -0.35% | 35.99% | CN(C)c1nc(N(C)C)nc(N(C)C)n1 [Altretamine] | 
15 | -1.83% | 36.49% | NC12CC3CC(CC(C3)C1)C2 [Amantadine hydrochloride] | 
16 | 4.62% | 34.32% | N=C(N)NC(=O)c1nc(Cl)c(N)nc1N [Amiloride hydrochloride] | 
17 | 32.10% |  | CCCCc1oc2ccccc2c1C(=O)c1cc(I)c(OCCN(CC)CC)c(I)c1 [Amiodarone hydrochloride] | 
18 |  |  | CCN1CCCC1CNC(=O)c1cc(S(=O)(=O)CC)c(N)cc1OC (centres unmarked) [Amisulpride] | % conversion [3]: 40.99%; inhibition at 20 µM (LOPAC Plate 4, compound at 20 uM, read-out: % inhibition): -13.2%

Row | Structure (SMILES) | Plate 1 (% inhibition) [1] | Plate 1 (% conversion) [2] | further results
19 | NCCCCN=C(N)N [Agmatine sulfate] | -2.35% |  | Plate 1 (% conversion): 36.66%
20 | NCCCNCCSP(=O)(O)O [Amifostine] | -14.28% |  | Plate 1 (% conversion): 40.67%
21 | CN1[C@@H]2CC[C@H]1C[C@@H](OC(c1ccccc1)c1ccccc1N)C2 (some centres unmarked) [Aminobenztropine] | -6.68% |  | Plate 1 (% conversion): 38.12%
22 | NN=C(N)N.NN=C(N)N.O=S(=O)(O)O [Aminoguanidine hemisulfate] | 3.68% | 34.64% | 
23 | Cl.N=C(N)NN [Aminoguanidine hydrochloride] | -12.95% | 40.22% | 
24 | Cn1c(=O)c2[nH]cnc2n(C)c1=O.Cn1c(=O)c2[nH]cnc2n(C)c1=O.NCCN [Aminophylline ethylenediamine] | -9.00% | 38.90% | 
25 | Nc1nc(N)c2nc(CNc3ccc(C(=O)N[C@@H](CCC(=O)O)C(=O)O)cc3)cnc2n1 [Aminopterin] | -2.16% |  | Plate 1 (% conversion): 36.60%
